Laboratory results from patent US20250268913A1, “PKC INHIBITORS FOR THE TREATMENT OF SEPTIC CHOLESTASIS WITH CTM TARGETING” (SMARTDYELIVERY GMBH, priority 2018, published 2025).

Columns and labels:
[1] = system: PCI model, C57/BL6 mice; assay: Survival rate in cholestasis model under septic conditions, peritoneal contamination and infection (PCI); assay type: in vivo; details: free drug alone, 4 mg/kg body weight
Procedure: In order to mimic the septic cholestasis, a systemic inflammation was induced using the well-established peritoneal contamination and infection (PCI) model. In this model, a human feces suspension is applied intraperitoneally (i.p.) and rapidly triggers sepsis with liver dysfunction. For each batch of human stool, the dose is titrated carefully for a survival between 0% and 20% within two weeks.
To find the adequate dose of stool, different doses were tested. 6 h after i.p. application of the stool, 8-12 weeks old C57/BL6 mice or FVB/N mice were treated with the nanoparticles or the free drug respectively.
A systemic infection/sepsis with organ failure was induced in male C57/BL6 mice by using the PCI model. For this purpose, a human fecal suspension (2.5 μl/g BW for stool batch1 and 6 μl/g for stool batch 2, respectively) was injected intraperitoneally (without anesthesia) with weight adaptation, thus triggering peritonitis with subsequent systemic infection. […] The animals were closely monitored and scored every 6 hours for signs of infection in order to timely. […] With the evaluated dose of 6 μl/g BW stool and additional antibiotic therapy, all mice died within three days, as shown in the Kaplan-Meier-Schätzer diagram (FIG. 14, right panel). […]

[2] = compared to placebo; cited from earlier work
[3] = cited from earlier work

## O=C1NC(=O)/C(=C\c2ccc3nccnc3c2)S1 [AS605240]
[1]
  activity of free drug (survival): active

## CN(C)CCCn1cc(C2=C(c3c[nH]c4ccccc34)C(=O)NC2=O)c2ccccc21 [BIM-1]
[1]
  activity of free drug (survival): active

## CC[C@H](Nc1ncnc2[nH]cnc12)c1nc2cccc(F)c2c(=O)n1-c1ccccc1 [idelalisib]
[2]
  risk of developing sepsis as adverse effect: five-fold higher

## CO[C@@H]1[C@H](N(C)C(=O)c2ccccc2)C[C@H]2O[C@]1(C)n1c3ccccc3c3c4c(c5c6ccccc6n2c5c31)C(=O)NC4 [midostaurin]
[3]; most common serious adverse reactions
  Serious adverse reactions due to infections and gastrointestinal disorders: ≥ 20%
[3]; number of deaths
  on-treatment deaths from disease progression attributed to infection: 4
[3]; page 8 of the professional information
  adverse reaction sepsis occurring in patients: ≥ 9 % of patients
[3]; patients
  Grade ≥3 adverse reactions reported (fatigue, sepsis, gastrointestinal hemorrhage, pneumonia, diarrhea, febrile neutropenia): ≥ 5%
  Serious adverse reactions: 68 % of patients
  Treatment discontinuation due to adverse reaction: 21 % of patients
